Results reported in paper PMC9250534, “Synthesis and direct assay of large macrocycle diversities by combinatorial late-stage modification at picomole scale” (Nature Communications, 2022).
Numbered stars: 1 amine (or outer) side, 2 acyl side, 3 side chain; on linkers, the order of the positions; unused ones are H or OH. Bridge positions count the residues as written; N and C are the ends. Square brackets hold non-standard residues; d marks the D form. Peptide text beside a SMILES is read from it. * marks the point of attachment. ξ: configuration not given here. ξPro(4-NHCO(5-Cl-2-thienyl)) = O=C(NC1CNC(C(=O)O)C1)c1ccc(Cl)s1; Pyrazinoyl(5-oxo-4H) = O=C(c1c[nH]c(=O)cn1)*; 1,2,3Thiadiazole5CO(4-Me) = Cc1nnsc1C(=O)*; Nicotinoyl(6-OMe) = COc1ccc(C(=O)*)cn1; 2Thenoyl(5-Cl) = O=C(c1ccc(Cl)s1)*; Pyrazinecarbonyl = O=C(c1cnccn1)*; Phenoxyacetyl = O=C(COc1ccccc1)*; Cysteamide = C(CS[*:3])N[*:1]; 4Amb = NCc1ccc(C(=O)O)cc1; Isovaleryl = CC(C)CC(=O)*; Orn = NCCC[C@H](N)C(=O)O; Api = NC1(C(=O)O)CCNCC1; Bz = O=C(c1ccccc1)*; βAla = NCCC(=O)O; Mpa = O=C(O)CCS

Target: T1, thrombin (Homo sapiens, UniProt P00734)
T1 construct: consists of two polypeptide chains of 36 (light chain) and 259 amino acid
Experiment: Thrombin inhibition screen of crude macrocycle reactions (residual thrombin activity, fluorogenic substrate Z-Gly-Gly-Arg-AMC)
Type: biochemical
Conditions: 10 µM macrocycle concentration; for percent residual thrombin activity: crude reactions, Library 1a-l, scaffold AA1-AA2-AA3 combined with 1-16 or '-'; for % thrombin activity, Original screen / % thrombin activity, Repeat screen: macrocycles containing acid 14, crude reaction; for % thrombin activity, Repeat screen: replicate reaction and screen
Method in brief: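 Residual activity was measured as the AMC release rate after adding 50 μM Z-Gly-Gly-Arg-AMC. This followed a 10-min room-temperature preincubation of 2 nM thrombin with 10 μM single macrocycles in pH 7.4 Tris buffer (0.6% DMSO). Percent inhibition was taken against the mean slope of DMSO controls.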

Row | SMILES | percent residual thrombin activity [%] | % thrombin activity, Original screen [%] | % thrombin activity, Repeat screen [%]
1 | CC(C)[C@@H]1NC(=O)[C@H](CCCCNC(=O)c2ccco2)NC(=O)CCSSCCNC(=O)C2(CC2)CNC1=O [D1-V-B6/16] | 107.867 | – | –
2 | O=C1CCSSCCNC(=O)C(Cc2c[nH]c3ccccc23)NC(=O)C2CC(NC(=O)c3ccc(Cl)s3)CN2C(=O)CCN1 (stereo not drawn) [X B2 D5 w] | – | 95.8 | 101.8
3 | CC[C@H](C)[C@@H]1NC(=O)[C@H](CCCNC(=O)Cc2c[nH]c3ccccc23)NC(=O)c2cccc(c2)CNC(=O)CCSSCCNC1=O [B5-D2-I/12] | 103.906 | – | –
4 | O=C1CCNC(=O)[C@@H](CO)NC(=O)CCSSCCNC(=O)[C@H](CCCCNC(=O)c2cnccn2)N1 [s-B2-D1/2] | 113.66 | – | –
5 | O=C(COc1ccccc1)NCCCC[C@@H]1NC(=O)[C@H](Cc2c[nH]c3ccccc23)NC(=O)CCSSCCNC(=O)[C@@H]2CCCN2C1=O [W-D1-B1/13] ([Mpa]WK(Phenoxyacetyl)P-Cysteamide; disulfide 1-C) | 96.359 | – | –
6 | O=C1CNC(=O)[C@@H](NC(=O)c2ccc(Cl)s2)CSSCCNC(=O)c2ccc(cc2)CNC(=O)[C@@H](CO)N1 [C G s B3] | – | 93.7 | 99.7
7 | CC(C)CC1NC(=O)C2CC(NC(=O)c3ccc(Cl)s3)CN2C(=O)CCSSCCNC(=O)c2ccc(cc2)CNC1=O (stereo not drawn) [X D5 L B3] | – | 110.6 | 115.5
8 | C[C@H]1NC(=O)CCSSCCNC(=O)[C@H](CCCCNC(=O)c2ccccc2)NC(=O)CCNC1=O [a-B2-D1/1] | 107.599 | – | –
9 | O=C1CCSSCCNC(=O)[C@@H](CNC(=O)c2ccc(Cl)s2)NC(=O)c2cccc(c2)CNC(=O)[C@H](Cc2c[nH]c3ccccc23)N1 [X W B5 D4] | – | 103.8 | 106.8
10 | CC[C@H](C)[C@@H]1NC(=O)[C@H](CCCNC(=O)CC(C)C)NC(=O)CCSSCCNC(=O)CCNC1=O [D2-I-B2/8] ([Mpa][Orn](Isovaleryl)I[βAla]-Cysteamide; disulfide 1-C) | 110.049 | – | –
11 | CC(C)[C@H]1NC(=O)[C@H](CCCCNC(=O)c2c[nH]c(=O)cn2)NC(=O)[C@@H]2CCCN2C(=O)CCSSCCNC1=O [B1-D1-v/9] ([Mpa]PK(Pyrazinoyl(5-oxo-4H))[dV]-Cysteamide; disulfide 1-C) | 111.698 | – | –
12 | O=C1CCSSCCNC(=O)[C@H](CCCCNC(=O)c2ccco2)NC(=O)[C@H](Cc2ccc(O)cc2)NC(=O)C2(CC2)CN1 [B6-Y-D1/16] | 103.228 | – | –
13 | O=C1CCSSCCNC(=O)C2CCCN2C(=O)C2CC(NC(=O)c3ccc(Cl)s3)CN2C(=O)C(Cc2c[nH]c3ccccc23)N1 (stereo not drawn) [X W D5 B1] ([Mpa]W[ξPro(4-NHCO(5-Cl-2-thienyl))]P-Cysteamide; disulfide 1-C; configuration not given here) | – | 113.1 | 119.4
14 | Cc1nnsc1C(=O)NCCCC[C@@H]1NC(=O)[C@H](CC(C)C)NC(=O)CCSSCCNC(=O)[C@@H]2CCCN2C1=O [L-D1-B1/15] ([Mpa]LK(1,2,3Thiadiazole5CO(4-Me))P-Cysteamide; disulfide 1-C) | 110.815 | – | –
15 | NC(=O)CC[C@@H]1NC(=O)CCSSCCNC(=O)[C@H]2CCCN(C2)C(=O)[C@H](CCCCNC(=O)COc2ccccc2)NC1=O [Q-D1-B4/13] | 120.491 | – | –
16 | O=C(COc1ccccc1)NCCCC[C@@H]1NC(=O)[C@H]2CCCN(C2)C(=O)[C@@H](CO)NC(=O)CCSSCCNC1=O [s-B4-D1/13] | 112.216 | – | –
17 | COc1ccc(C(=O)NCCCC[C@@H]2NC(=O)[C@@H](CO)NC(=O)[C@@H]3CCCN3C(=O)CCSSCCNC2=O)cn1 [B1-s-D1/10] ([Mpa]P[dS]K(Nicotinoyl(6-OMe))-Cysteamide; disulfide 1-C) | 110.704 | – | –
18 | O=C(NCCCCC1NC(=O)C2CCCN(C2)C(=O)CCSSCCNC(=O)C(CO)NC1=O)c1ccc(Cl)s1 (stereo not drawn) [X B4 D1 S] | – | 96.9 | 99.9
19 | CC[C@H](C)[C@@H]1NC(=O)[C@H](CCCNC(=O)c2ccccc2)NC(=O)CCSSCCNC(=O)CCNC1=O [D2-I-B2/1] ([Mpa][Orn](Bz)I[βAla]-Cysteamide; disulfide 1-C) | 109.798 | – | –
20 | CC(C)CC(=O)NCCCC[C@@H]1NC(=O)C2(CC2)CNC(=O)CCSSCCNC(=O)[C@H](CCC(N)=O)NC1=O [B6-D1-Q/8] | 101.194 | – | –
21 | NC(=O)CC[C@@H]1NC(=O)[C@H]2CCCN(C2)C(=O)CCSSCCNC(=O)C2(CCN(C(=O)c3ccc(Cl)s3)CC2)NC1=O [X B4 Q D6] | – | 93.8 | 99.5
22 | C[C@H]1NC(=O)CCSSCCNC(=O)c2cccc(c2)CNC(=O)[C@H](CCCCNC(=O)c2cnccn2)NC1=O [a-D1-B5/2] | 104.737 | – | –
23 | COc1ccc(C(=O)NCCCC[C@@H]2NC(=O)[C@H](C(C)C)NC(=O)CCSSCCNC(=O)[C@@H]3CCCN3C2=O)cn1 [v-D1-B1/10] ([Mpa]VK(Nicotinoyl(6-OMe))P-Cysteamide; disulfide 1-C) | 104.488 | – | –

Row | SMILES | percent residual thrombin activity [%] | % thrombin activity, Original screen [%] | % thrombin activity, Repeat screen [%]
24 | COc1ccc(C(=O)NCCC[C@@H]2NC(=O)[C@H]3CCCN(C3)C(=O)[C@H](CC(C)C)NC(=O)CCSSCCNC2=O)cn1 [L-B4-D2/10] | 107.664 | – | –
25 | O=C1CCNC(=O)C2CC(NC(=O)c3ccc(Cl)s3)CN2C(=O)CCSSCCNC(=O)C(CO)N1 (stereo not drawn) [X D5 B2 S] | – | 115.0 | 124.0
26 | O=C1CCSSCCNC(=O)[C@H](Cc2ccc(O)cc2)NC(=O)c2cccc(c2)CNC(=O)[C@H](CCCNC(=O)c2ccco2)N1 [D2-B5-Y/16] | 100.852 | – | –
27 | NCCCC[C@@H]1NC(=O)CCSSCCNC(=O)[C@@H]2CCCN2C(=O)[C@H](CCC(N)=O)NC1=O [D1-Q-B1/-] ([Mpa]KQP-Cysteamide; disulfide 1-C) | 108.142 | – | –
28 | NC(=O)CC[C@@H]1NC(=O)CCSSCCNC(=O)[C@H](CCCCNC(=O)c2cnccn2)NC(=O)C2(CC2)CNC1=O [Q-B6-D1/2] | 107.685 | – | –
29 | O=C1CCSSCCNC(=O)c2ccc(cc2)CNC(=O)[C@H](Cc2c[nH]c3ccccc23)NC(=O)[C@H](CCCNC(=O)c2ccccc2)N1 [D2-W-B3/1] ([Mpa][Orn](Bz)W[4Amb]-Cysteamide; disulfide 1-C) | 105.41 | – | –
30 | NC(=O)CC[C@@H]1NC(=O)c2ccc(cc2)CNC(=O)[C@H](CCCNC(=O)c2c[nH]c(=O)cn2)NC(=O)CCSSCCNC1=O [D2-B3-Q/9] | 109.29 | – | –
31 | CC(C)[C@@H]1NC(=O)CCSSCCNC(=O)[C@@H]2CCCN2C(=O)[C@H](CCCCNC(=O)COc2ccccc2)NC1=O [V-D1-B1/13] ([Mpa]VK(Phenoxyacetyl)P-Cysteamide; disulfide 1-C) | 111.167 | – | –
32 | CC(C)C[C@@H]1NC(=O)CCSSCCNC(=O)[C@@H]2CCCN2C(=O)[C@H](CCCCNC(=O)COc2ccccc2)NC1=O [L-D1-B1/13] ([Mpa]LK(Phenoxyacetyl)P-Cysteamide; disulfide 1-C) | 112.403 | – | –
33 | COc1ccc(C(=O)NCCC[C@@H]2NC(=O)CCNC(=O)CCSSCCNC(=O)[C@H](Cc3ccc(O)cc3)NC2=O)cn1 [B2-D2-Y/10] | 105.275 | – | –
34 | COc1ccc(C(=O)NCCC[C@@H]2NC(=O)CCSSCCNC(=O)[C@H](C(C)C)NC(=O)[C@H]3CCCN(C3)C2=O)cn1 [D2-B4-V/10] | 108.833 | – | –
35 | O=C(NC[C@H]1NC(=O)[C@@H](CO)NC(=O)[C@H]2CCCN(C2)C(=O)CCSSCCNC1=O)c1ccc(Cl)s1 [X B4 s D4] | – | 104.5 | 106.7
36 | O=C1CCSSCCNC(=O)[C@H](Cc2ccc(O)cc2)NC(=O)[C@H](CCCNC(=O)COc2ccccc2)NC(=O)C2(CC2)CN1 [B6-D2-Y/13] | 105.408 | – | –
37 | O=C1CCSSCCNC(=O)C2(CCN(C(=O)c3ccc(Cl)s3)CC2)NC(=O)[C@@H]2CCCN2C(=O)[C@H](Cc2c[nH]c3ccccc23)N1 [X W B1 D6] ([Mpa]WP[Api](2Thenoyl(5-Cl))-Cysteamide; disulfide 1-C) | – | 105.0 | 113.7
38 | CC(C)C[C@@H]1NC(=O)CCSSCCNC(=O)[C@H](CCCCN)NC(=O)C2(CC2)CNC1=O [L-B6-D1/-] | 103.319 | – | –
39 | CC(C)CC1NC(=O)C2(CC2)CNC(=O)C2CC(NC(=O)c3ccc(Cl)s3)CN2C(=O)CCSSCCNC1=O (stereo not drawn) [X D5 B6 L] | – | 114.0 | 116.8
40 | C[C@H]1NC(=O)CCSSCCNC(=O)[C@H](CCCCNC(=O)c2cnccn2)NC(=O)[C@@H]2CCCN2C1=O [a-B1-D1/2] ([Mpa][dA]PK(Pyrazinecarbonyl)-Cysteamide; disulfide 1-C) | 113.236 | – | –
41 | O=C(NCCCC[C@@H]1NC(=O)[C@@H](Cc2c[nH]c3ccccc23)NC(=O)[C@H]2CCCN(C2)C(=O)CCSSCCNC1=O)c1ccccc1 [B4-w-D1/1] | 105.33 | – | –
42 | O=C1CNC(=O)c2ccc(cc2)CNC(=O)[C@@H](NC(=O)c2ccc(Cl)s2)CSSCCNC(=O)[C@H](Cc2cnc[nH]2)N1 [C B3 G H] | – | 103.1 | 116.7
43 | CC[C@H](C)[C@@H]1NC(=O)[C@H](CCCNC(=O)COc2ccccc2)NC(=O)CCSSCCNC(=O)CCNC1=O [D2-I-B2/13] | 114.645 | – | –
44 | NCCCC[C@@H]1NC(=O)C2(CC2)CNC(=O)[C@H](Cc2c[nH]c3ccccc23)NC(=O)CCSSCCNC1=O [W-B6-D1/-] | 87.3276 | – | –
45 | COc1ccc(C(=O)NCCC[C@@H]2NC(=O)CCSSCCNC(=O)[C@@H](Cc3ccccc3)NC(=O)[C@H]3CCCN(C3)C2=O)cn1 [D2-B4-f/10] | 107.675 | – | –
